Activity calls are given as the source filed them. No cut-off for these calls is given here.
Columns and labels:
[1] = biological target: T1, Proteasome subunit beta type-9 (Homo sapiens, UniProt P28065); assay: Inhibition of LMP2 in human 20S immunoproteasome using Ac-PAL-AMC as substrate after 1 hr by fluorescence based microplate reader analysis
T1 sequence (P28065 whole entry): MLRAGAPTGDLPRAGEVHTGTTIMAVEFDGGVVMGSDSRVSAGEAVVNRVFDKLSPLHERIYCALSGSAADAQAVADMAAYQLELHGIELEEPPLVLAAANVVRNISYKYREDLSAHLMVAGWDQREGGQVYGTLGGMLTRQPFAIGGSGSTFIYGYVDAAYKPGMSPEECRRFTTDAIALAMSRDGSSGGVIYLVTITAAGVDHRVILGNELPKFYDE

[2] = Inhibition of LMP7/Beta 5 subunit chymotrypsin-like activity in human RPM18226 cell lysates using Suc-LLVY-AMC as substrate after 1 hr by fluorescence based microplate reader analysis; type: cell-free; conditions: rpmi-8226
[3] = biological target: T2, Proteasome subunit beta type-9 (Homo sapiens) (UniProt P28065); assay: Inhibition of LMP2 subunit in human DLD1 cells over expressing ABCB1 at 1 uM using Ac-PAL-AMC as substrate incubated for 4 hrs; type: cell-based; conditions: DLD-1
T2 sequence (whole entry): T1 sequence (P28065 whole entry)

Compound	IC50 [1] [µM]	IC50 [2] [µM]	inhibition [3]
CC(=O)NCC(=O)N1C[C@H](F)C[C@H]1C(=O)N[C@@H](Cc1ccccc1)C(=O)N[C@@H](CC(C)C)C(=O)[C@@]1(C)CO1	0.151	> 10	–
Cc1ncc(C(=O)NCC(=O)N2CCC[C@H]2C(=O)N[C@@H](Cc2ccc3ccccc3c2)C(=O)N[C@@H](CC(C)C)C(=O)[C@@]2(C)CO2)s1	0.183	> 10	–
CC(=O)NCC(=O)N1CCC[C@H]1C(=O)N[C@@H](Cc1ccccc1)C(=O)N[C@@H](CC1CCCCC1)C(=O)[C@@]1(C)CO1	0.201	> 10	–
CC(=O)NCC(=O)N1CCC[C@H]1C(=O)N[C@@H](Cc1ccccc1)C(=O)N[C@@H](Cc1ccccc1)C(=O)[C@@]1(C)CO1	0.342	> 10	–
COc1cnc(C(=O)NCC(=O)N2CCC[C@H]2C(=O)N[C@@H](Cc2ccccc2)C(=O)N[C@@H](CC(C)C)C(=O)[C@@]2(C)CO2)cn1	0.111	> 10	–
CC(C)C[C@H](NC(=O)[C@H](Cc1ccccc1)NC(=O)[C@@H]1CCCN1C(=O)CNC(=O)c1cccc(O)n1)C(=O)[C@@]1(C)CO1	0.143	> 10	–
Cc1ncc(C(=O)NCC(=O)N2CCC[C@H]2C(=O)N[C@@H](CCc2ccccc2)C(=O)N[C@@H](CC(C)C)C(=O)[C@@]2(C)CO2)s1	0.103	> 10	–
CC(C)C[C@H](NC(=O)[C@H](Cc1ccc2ccccc2c1)NC(=O)[C@@H]1CCCN1C(=O)CNC(=O)c1cnccn1)C(=O)[C@@]1(C)CO1	0.0901	5.76	–
CC(C)C[C@H](NC(=O)[C@H](Cc1ccccc1)NC(=O)[C@@H]1CCCN1C(=O)CN1CCOCC1)C(=O)[C@@]1(C)CO1	1.22	> 10	–
CC(=O)NCC(=O)N1CCC[C@@]1(C)C(=O)N[C@@H](Cc1ccccc1)C(=O)N[C@@H](CC(C)C)C(=O)[C@@]1(C)CO1	0.152	> 10	–
CC(C)C[C@H](NC(=O)[C@H](Cc1ccc(-c2ccccc2)cc1)NC(=O)[C@@H]1CCCN1C(=O)CNC(=O)c1cnccn1)C(=O)[C@@]1(C)CO1	0.0628	10	–
CC(C)C[C@H](NC(=O)[C@H](CCc1ccccc1)NC(=O)[C@@H]1CCCN1C(=O)CNC(=O)c1cnccn1)C(=O)[C@@]1(C)CO1	0.131	> 10	Active
CC(=O)NCC(=O)N1CCC[C@H]1C(=O)N[C@@H](Cc1ccc(NC(=O)c2cnccn2)cc1)C(=O)N[C@@H](CC(C)C)C(=O)[C@@]1(C)CO1	0.0332	> 10	–
CC(=O)NCC(=O)N1CC(F)(F)C[C@H]1C(=O)N[C@@H](Cc1ccccc1)C(=O)N[C@@H](CC(C)C)C(=O)[C@@]1(C)CO1	0.0718	> 10	–
CC(C)C[C@H](NC(=O)[C@H](Cc1ccccc1)NC(=O)[C@@H]1CCCN1C(=O)c1cccc(O)n1)C(=O)[C@@]1(C)CO1	1.01	> 10	–
CC(C)C[C@H](NC(=O)[C@H](Cc1ccccc1)NC(=O)[C@@H]1CCCN1C(=O)CN1CCOCC1=O)C(=O)[C@@]1(C)CO1	1.04	> 10	–
CC(=O)NCC(=O)N1CCC[C@H]1C(=O)N[C@@H](Cc1ccc(NC(=O)c2ccccc2)cc1)C(=O)N[C@@H](CC(C)C)C(=O)[C@@]1(C)CO1	0.072	5.08	–
Cc1ncc(C(=O)NCC(=O)N2CCC[C@H]2C(=O)N[C@@H](Cc2ccc(-c3ccccc3)cc2)C(=O)N[C@@H](CC(C)C)C(=O)[C@@]2(C)CO2)s1	0.115	10	Active
Cc1cc(C(=O)NCC(=O)N2CCC[C@H]2C(=O)N[C@@H](CCc2ccccc2)C(=O)N[C@@H](CC(C)C)C(=O)[C@@]2(C)CO2)no1	0.132	10	–

Further lines, results first:

IC50 [1] [µM]	IC50 [2] [µM]	inhibition [3]	Compound
0.12	> 10	–	CC(=O)NCC(=O)N1CCC[C@H]1C(=O)N[C@@H](CO)C(=O)N[C@@H](CC(C)C)C(=O)[C@@]1(C)CO1
0.106	> 10	–	Cc1ncc(C(=O)NCC(=O)N2CCC[C@H]2C(=O)N[C@@H](Cc2ccccc2)C(=O)N[C@@H](CC(C)C)C(=O)[C@@]2(C)CO2)s1
0.058	> 10	–	CC(=O)NCC(=O)N1CCC[C@H]1C(=O)N[C@@H](CCc1ccccc1)C(=O)N[C@@H](CC(C)C)C(=O)[C@@]1(C)CO1
0.0335	> 10	–	CC(=O)NCC(=O)N1CCC[C@H]1C(=O)N[C@@H](Cc1ccc2ccccc2c1)C(=O)N[C@@H](CC(C)C)C(=O)[C@@]1(C)CO1
0.115	> 10	–	CC(C)C[C@H](NC(=O)[C@H](Cc1ccccc1)NC(=O)[C@@H]1CCCN1C(=O)CNS(C)(=O)=O)C(=O)[C@@]1(C)CO1
0.131	> 10	–	CC(C)C[C@H](NC(=O)[C@H](Cc1ccccc1)NC(=O)[C@@H]1CCCN1C(=O)CNC(=O)C(F)(F)F)C(=O)[C@@]1(C)CO1
0.12	> 10	–	CCCC[C@H](NC(=O)[C@@H]1CCCN1C(=O)CNC(C)=O)C(=O)N[C@@H](CC(C)C)C(=O)[C@@]1(C)CO1
0.622	> 10	–	CC(=O)NCC(=O)N1CC(=O)C[C@H]1C(=O)N[C@@H](Cc1ccccc1)C(=O)N[C@@H](CC(C)C)C(=O)[C@@]1(C)CO1
0.123	1.31	–	CC(=O)NCC(=O)N1CCCC[C@H]1C(=O)N[C@@H](Cc1ccccc1)C(=O)N[C@@H](CC(C)C)C(=O)[C@@]1(C)CO1
0.1	> 10	–	CC(=O)NCC(=O)N1CC[C@H]1C(=O)N[C@@H](Cc1ccccc1)C(=O)N[C@@H](CC(C)C)C(=O)[C@@]1(C)CO1
0.121	> 10	–	CC(=O)NCC(=O)N1CCC[C@H]1C(=O)N[C@@H](Cc1ccc(C(C)(C)C)cc1)C(=O)N[C@@H](CC(C)C)C(=O)[C@@]1(C)CO1
0.122	10	–	CC(=O)NCC(=O)N1CCC[C@H]1C(=O)N[C@@H](Cc1ccncc1)C(=O)N[C@@H](CC(C)C)C(=O)[C@@]1(C)CO1
0.0217	5.3	–	CC(=O)NCC(=O)N1CCC[C@H]1C(=O)N[C@@H](Cc1ccc(-c2ccccc2)cc1)C(=O)N[C@@H](CC(C)C)C(=O)[C@@]1(C)CO1
0.0297	> 10	–	CC(=O)NCC(=O)N1CCC[C@H]1C(=O)N[C@@H](Cc1cccc2ccccc12)C(=O)N[C@@H](CC(C)C)C(=O)[C@@]1(C)CO1
0.082	> 10	–	CC(=O)NCC(=O)N1CCC[C@H]1C(=O)N[C@@H](Cc1ccc(F)cc1)C(=O)N[C@@H](CC(C)C)C(=O)[C@@]1(C)CO1
0.134	> 10	–	CCc1ccc(C[C@H](NC(=O)[C@@H]2CCCN2C(=O)CNC(C)=O)C(=O)N[C@@H](CC(C)C)C(=O)[C@@]2(C)CO2)cc1
0.0909	> 10	–	CC(=O)NCC(=O)N1CCC[C@H]1C(=O)N[C@@H](Cc1ccc(NC(=O)CN2CCOCC2)cc1)C(=O)N[C@@H](CC(C)C)C(=O)[C@@]1(C)CO1

From ChEMBL document CHEMBL4602696, “LMP2 Inhibitors as a Potential Treatment for Alzheimer's Disease” (J Med Chem, 2020)
